From the supplement of paper PMC10307832

Key:
Experiment in all cases: relative viability (nuclei count vs DMSO), 5 days (fraction); higher = more cells survive
NCI-H838 = test system: NCI-H838
How it was run: (§1)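 For relative viability, nuclei counts in treated wells were divided by those in vehicle wells. Lung cancer cell lines had been pin-tool dosed in 1536-well plates the day after seeding and cultured for 5 days, then fixed and stained in one step (final 0.05% Triton X-100, 1% formaldehyde, 1 ug/ml Hoechst) and imaged at 4×. Doses were one drug alone or a fixed anchor-drug dose plus five library-drug doses (not always all listed) in √10 steps, and values are duplicate-plate medians.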

HCC-78 = test system: HCC-78
How it was run: as §1

NCI-H650 = test system: NCI-H650
How it was run: as §1

EPLC-272H = test system: EPLC-272H
How it was run: as §1

NCI-H1993 = test system: NCI-H1993
How it was run: as §1

COR-L23 = test system: COR-L23
How it was run: as §1

NCI-H2085 = test system: NCI-H2085
How it was run: as §1

SW 1573 = test system: SW 1573
How it was run: as §1

NCI-H358 = test system: NCI-H358
How it was run: as §1

PC-14 = test system: PC-14
How it was run: as §1

NCI-H2009 = test system: NCI-H2009
How it was run: as §1

NCI-H460 = test system: NCI-H460
How it was run: as §1

UMC-11 = test system: UMC-11
How it was run: as §1

LU99A = test system: LU99A
How it was run: as §1

NCI-H1915 = test system: NCI-H1915
How it was run: as §1

LC-2-ad = test system: LC-2-ad
How it was run: as §1

NCI-H2347 = test system: NCI-H2347
How it was run: as §1

ABC-1 = test system: ABC-1
How it was run: as §1

NCI-H2126 = test system: NCI-H2126
How it was run: as §1

HCC-15 = test system: HCC-15
How it was run: as §1

NCI-H1651 = test system: NCI-H1651
How it was run: as §1

HARA = test system: HARA
How it was run: as §1

## C[C@@H]1CN(CC(=O)Nc2ccc3c(c2)Cc2cccc(-c4cc(=O)cc(N5CCOCC5)o4)c2S3)C[C@H](C)O1 + CS(=O)(=O)CCNCc1ccc(-c2ccc3ncnc(Nc4ccc(OCc5cccc(F)c5)c(Cl)c4)c3c2)o1 [Lapatinib] (partner 2 µM)
NCI-H838; first compound 0.04 µM
  relative viability: 0.911
NCI-H838; first compound 0.1265 µM
  relative viability: 0.911
NCI-H838; first compound 0.4 µM
  relative viability: 0.883
NCI-H838; first compound 4 µM
  relative viability: 0.781
HCC-78; first compound 0.04 µM
  relative viability: 0.64
HCC-78; first compound 0.1265 µM
  relative viability: 0.705
HCC-78; first compound 0.4 µM
  relative viability: 0.702
HCC-78; first compound 4 µM
  relative viability: 0.703
NCI-H650; first compound 0.04 µM
  relative viability: 0.583
NCI-H650; first compound 0.1265 µM
  relative viability: 0.852
NCI-H650; first compound 0.4 µM
  relative viability: 0.857
NCI-H650; first compound 4 µM
  relative viability: 0.697
EPLC-272H; first compound 0.04 µM
  relative viability: 0.837
EPLC-272H; first compound 0.1265 µM
  relative viability: 1
EPLC-272H; first compound 0.4 µM
  relative viability: 1.01
EPLC-272H; first compound 4 µM
  relative viability: 0.783
NCI-H1993; first compound 0.04 µM
  relative viability: 0.862
NCI-H1993; first compound 0.1265 µM
  relative viability: 0.86
NCI-H1993; first compound 0.4 µM
  relative viability: 0.812
NCI-H1993; first compound 4 µM
  relative viability: 0.833
COR-L23; first compound 0.04 µM
  relative viability: 0.893
COR-L23; first compound 0.1265 µM
  relative viability: 1.08
COR-L23; first compound 0.4 µM
  relative viability: 1.12
COR-L23; first compound 4 µM
  relative viability: 1.05
NCI-H2085; first compound 0.04 µM
  relative viability: 0.402
NCI-H2085; first compound 0.1265 µM
  relative viability: 0.742
NCI-H2085; first compound 0.4 µM
  relative viability: 0.624
NCI-H2085; first compound 4 µM
  relative viability: 0.58
SW 1573; first compound 0.04 µM
  relative viability: 1.1
SW 1573; first compound 0.1265 µM
  relative viability: 1.14
SW 1573; first compound 0.4 µM
  relative viability: 1.18
SW 1573; first compound 4 µM
  relative viability: 1.08
NCI-H358; first compound 0.04 µM
  relative viability: 0.356
NCI-H358; first compound 0.1265 µM
  relative viability: 0.427
NCI-H358; first compound 0.4 µM
  relative viability: 0.39
NCI-H358; first compound 4 µM
  relative viability: 0.417
PC-14; first compound 0.04 µM
  relative viability: 0.277
PC-14; first compound 0.1265 µM
  relative viability: 0.298
PC-14; first compound 0.4 µM
  relative viability: 0.298
PC-14; first compound 4 µM
  relative viability: 0.316
NCI-H2009; first compound 0.04 µM
  relative viability: 0.486
NCI-H2009; first compound 0.1265 µM
  relative viability: 0.846
NCI-H2009; first compound 0.4 µM
  relative viability: 0.964
NCI-H2009; first compound 4 µM
  relative viability: 0.687
NCI-H460; first compound 0.04 µM
  relative viability: 0.941
NCI-H460; first compound 0.1265 µM
  relative viability: 1.02
NCI-H460; first compound 0.4 µM
  relative viability: 1.04
NCI-H460; first compound 4 µM
  relative viability: 0.799
UMC-11; first compound 0.04 µM
  relative viability: 0.984
UMC-11; first compound 0.1265 µM
  relative viability: 0.927
UMC-11; first compound 0.4 µM
  relative viability: 1.1
UMC-11; first compound 4 µM
  relative viability: 0.694
LU99A; first compound 0.04 µM
  relative viability: 0.783
LU99A; first compound 0.1265 µM
  relative viability: 1.15
LU99A; first compound 0.4 µM
  relative viability: 1.08
LU99A; first compound 4 µM
  relative viability: 1.04
NCI-H1915; first compound 0.04 µM
  relative viability: 0.872
NCI-H1915; first compound 0.1265 µM
  relative viability: 0.956
NCI-H1915; first compound 0.4 µM
  relative viability: 1.06
NCI-H1915; first compound 4 µM
  relative viability: 0.785
LC-2-ad; first compound 0.04 µM
  relative viability: 1
LC-2-ad; first compound 0.1265 µM
  relative viability: 0.928
LC-2-ad; first compound 0.4 µM
  relative viability: 0.672
LC-2-ad; first compound 4 µM
  relative viability: 0.875
NCI-H2347; first compound 0.04 µM
  relative viability: 0.79
NCI-H2347; first compound 0.1265 µM
  relative viability: 1.04
NCI-H2347; first compound 0.4 µM
  relative viability: 0.988
NCI-H2347; first compound 4 µM
  relative viability: 0.875
ABC-1; first compound 0.04 µM
  relative viability: 0.964
ABC-1; first compound 0.1265 µM
  relative viability: 1.06
ABC-1; first compound 0.4 µM
  relative viability: 1.22
ABC-1; first compound 4 µM
  relative viability: 1.21
NCI-H2126; first compound 0.04 µM
  relative viability: 0.762
NCI-H2126; first compound 0.1265 µM
  relative viability: 0.757
NCI-H2126; first compound 0.4 µM
  relative viability: 0.764
NCI-H2126; first compound 4 µM
  relative viability: 0.763
HCC-15; first compound 0.04 µM
  relative viability: 0.866
HCC-15; first compound 0.1265 µM
  relative viability: 0.736
HCC-15; first compound 0.4 µM
  relative viability: 0.929
HCC-15; first compound 4 µM
  relative viability: 0.763
NCI-H1651; first compound 0.04 µM
  relative viability: 0.82
NCI-H1651; first compound 0.1265 µM
  relative viability: 0.889
NCI-H1651; first compound 0.4 µM
  relative viability: 0.78
NCI-H1651; first compound 4 µM
  relative viability: 0.795
HARA; first compound 0.04 µM
  relative viability: 0.732
HARA; first compound 0.1265 µM
  relative viability: 0.613
HARA; first compound 0.4 µM
  relative viability: 0.796
HARA; first compound 4 µM
  relative viability: 0.738
